Laboratory results published in patent US20240299542A1, “NATURAL KILLER CELLS ENGINEERED TO REDUCE OR ELIMINATE CBL-B AND USES THEREOF” (City of Hope, priority 2021, published 2024).

Key:
IFN-γ [1] = test: Intracellular IFN-γ flow cytometry of siRNA-transduced NK cells; format: cell-based, human
Procedure: (§1) FIGS. 4A-4D depict the results of a study showing that downregulation of Cbl-b increases IFN-γ secretion in IL-15-activated primary human NK cells. (FIG. 4A) RNAseq was conducted using primary human NK cells transduced with either Cbl-b siRNA or Scr siRNA without or with incubation in IL-15 (10 ng/ml) for 16 h (4 donors for each group). […] (FIG. 4B) qRT-PCR was performed to quantify the mRNA levels of IFN-γ (n=6 donors) after IL-15 (10 ng/ml) 6 h stimulation. (FIG. 4C) The percentage of intracellular IFN-γ+ cells in un-transduced NK cells or those transduced with Cbl-b siRNA or Scr siRNA, each activated with IL-15 (10 ng/ml) for 24 h (11.5% vs 4.338%; P=0.0008; n=5 donors). (FIG. 4D) Supernatants were collected after IL-15 (10 ng/ml) for 24 h and IFN-γ concentrations measured by ELISA (18115 pg/ml vs 882.5 pg/ml; P=0.0099; n=7 donors). Scr-scrambled; *P<0.05, **P<0.01, ***P<0.001 by Student's two-tailed paired t-test or One-way ANOVA; ns, not significant. Data presented as mean±SEM.
FIGS. 9B-9D show intracellular flow cytometric analysis of CD56+ primary human NK cells transduced with Scr siRNA or transduced with Cbl-b siRNA, incubated with IL-18 (10 ng/ml), IL-12 (10 ng/ml) or IL-18 (10 ng/ml) plus IL-12 (10 ng/ml) for 24 h. Scr, scrambled; *P<0.05, ns, not significant. Data are presented as mean±SEM.
Flow cytometry. To determine protein cell surface expression via flow cytometry, cells were stained with monoclonal antibodies at room temperature for 20 minutes and washed with FACS buffer prior to analysis using a Fortessa X-20 flow cytometer (BD Biosciences). For IFN-γ intracellular flow cytometric analysis, […] GolgiPlug (BD Biosciences) was added for 4 h before cell harvest; cells were then permeabilized and fixed using a Cytofix/Cytoperm Fixation/Permeabilization Solution Kit (BD Biosciences), followed by analysis with a Fortessa X-20 flow cytometer. Intracellular flow cytometric analysis of Mertk was performed similarly except that GolgiPlug was not added. Data was analyzed by using Flowjo V10 software (Tree Star, Ashland, OR, USA).
(§2) To further explore how Cbl-b regulates the functions of primary human NK cells, we performed RNA-seq analyses using enriched primary NK cells from healthy donors transduced with Cbl-b siRNA or Scr siRNA without or with IL-15 treatment for 16 h (n=4 in each group). […] The intracellular results were supported by assessment IFN-γ secretion into the supernatant, in that IL-15-activated primary human NK cells transduced with Cbl-b siRNA expressed 10-fold higher levels of IFN-γ compared to NK cells transduced with Scr siRNA (FIG. 4D).

IFN-γ [2] = test: IFN-γ in supernatants by ELISA; format: cell-based, human
Procedure: as §1
ELISA. Primary NK cells were plated in an equivalent number of 100,000 cells/well in a 96-well plate in RPMI and supplemented with 10% FBS. Cells were treated with recombinant human IL-15 (10 ng/ml) for 24 h, and cell-free culture supernatant was collected and frozen at −80° C. for later use. IFN-γ concentration was measured by ELISA using anti-IFN-γ antibody from Thermo Fisher Scientific. Granzyme B concentration was measured by ELISA kit purchased from R&D.
as §2

Cbl-b siRNA: Cbl-b-specific Accell siRNA (Dharmacon), SEQ ID NO:1, CCUUCAUGUUCAGAUGGUU (Accell modified siRNA, pattern not given here)
percentage of IFN-γ+ fraction relative to Scr siRNA (IFN-γ [1]; IL-12 (10 ng/ml) or IL-12 plus IL-18 (10 ng/ml each) 24 h): no significant difference
percentage of intracellular IFN-γ+ cells (IFN-γ [1]; IL-15 (10 ng/ml) 24 h, n=5 donors): 11.5%
intracellular IFN-γ level relative to Scr siRNA (IFN-γ [1]; IL-15-activated): 2.5 fold
percentage of IFN-γ+ fraction relative to Scr siRNA (IFN-γ [1]; IL-18 (10 ng/ml) 24 h): 2.5 fold
IFN-γ concentration in supernatants (IFN-γ [2]; IL-15 (10 ng/ml) 24 h, n=7 donors): 18115 pg/mL
secreted IFN-γ level relative to Scr siRNA (IFN-γ [2]; IL-15-activated): 10 fold
